Data: patent US6864251B2, “Treatment of LTB4-mediated inflammatory disorders with optically-pure (R)-2,3-benzodiazepines” (Vela Pharmaceuticals, Inc., priority 2002, dated 2005)
“And” between values parts separate entries of the source, which are not always exact repeats. Identical values can stand only once.

Assays:
[1] = tested on: LTB4-induced dermal inflammation; experiment: Rabbit model of LTB4-induced dermal inflammation, histopathology of intradermal challenge sites; format: in vivo, New Zealand White Rabbits; set-up: key to Inflammation score / Edema score: 0=normal; T=trace; 1=minimal; 2=mild; 3=moderate; 4=marked; details: test article IP 60 mg/kg (dexamethasone 0.5 mg/kg); for Inflammation score / Edema score: 4 hr after challenge
Description: Test compounds were prepared as follows. The vehicle was first prepared by dissolving […] of hydroxypropylmethylcellulose 2910 (HPMC)(Sigma Chemical, St. Louis, Mo.) in 50 mL of 0.9% saline to yield a concentration of 2% HPMC. The three test articles, (R)-, (S)- and racemic tofisopam, were formulated by adding 1 g of each test article to 10 mL of vehicle.
On Day 0, the rabbits were sedated with ketamine/xylazine (35/5 mg/kg, s.c.) and an area of approximately 8×14 cm on the back was closely and carefully clipped to expose the skin, but not inflame or otherwise damage the epithelium. A grid of ten squares each approximately 2.5×2.5 cm was drawn on each animal's back using an indelible marker. The animals were then dosed intraperitoneally with the appropriate test article corresponding to the group. Thirty minutes after dosing with test or control article, the animals were challenged intradermally with the LTB4 or LTB4-aminopropamide (LTB4-AP, a synthetic LTB4 agonist) in the appropriate site as shown in Table 4. Each injection site was marked with an indelible marker in order to identify the exact location of the intradermal injection site. Sixty minutes after challenge, the animals were treated again with tofisopam or control articles. The animals were sacrificed 4 hrs. after challenge, and the intradermal injection sites were excised, fixed in 10% neutral buffered formalin (NBF), and submitted for histopathology. H&E-stained sections were read by a board-certified veterinary pathologist using light microscopy.
All animals were sacrificed 4 hr after challenge. The intradermal challenge sites were excised, placed on unique cardboard squares, fixed in 10% NBF, and submitted for histopathology. The skin sections included the epidermis and the subcutis, down to the back musculature.
The marked skin sections were fixed for at least 48 hours on small cardboard squares. At gross trimming, three levels were cut through marked skin region in order to assure that the injection sites is brought into the plane of section. The skins were gross trimmed, processed by dehydration, embedded in paraffin, sectioned at 3-5 μm, and stained with hematoxylin and eosin.
The tissues were evaluated histopathologically via light microscopy by a board-certified veterinary pathologist. Initially, the identity of the slides was masked in order to perform the initial evaluation and rank the slides. The slides were then unmasked and there was a careful assessment of the lesions and careful comparison of the tofisopam-treated sites to the vehicle and positive control tissues. The lesions were graded based upon the degree of inflammation and the degree of edema. The severity of the inflammation and edema was keyed as follows: 0=normal; T=trace; 1=minimal; 2=mild; 3=moderate; 4=marked.

DSS-induced colitis = experiment: Dextran sulfate sodium induced colitis: mouse model of inflammatory bowel disease; format: in vivo, Swiss Webster mice; details: for Mean DAI ± SEM: DSS 5% in tap water; for Mean DAI* ± SEM: DAI without weight loss parameter; for % of normal length: colon length
Description: In this model of colitis, an acute inflammation of the colon was produced by administration of dextran sulfate sodium (DSS) as a 5% solution in tap water. This colitis was characterized by histological events and an influx of neutrophils, macrophages and mediators of inflammation similar to those observed with human inflammatory bowel diseases. […] The following study was conducted in accordance with protocols of Okayasu et al., Gastroenterology, 98:694-702, 1990.
One hundred ten test animals (female, 6 week old Swiss Webster mice, 18-30 g) were divided into ten groups, selected to eliminate any statistical differences in mean group weight.
Each animal was dosed daily (IP) with either a test substance or vehicle, starting on Day 0. Beginning on Day 1, acute colon inflammation was induced by the administration ad libitum in drinking water of dextran sulfate sodium (DSS) as a 5% solution in tap water (10 mL/mouse/day for 5-6 days), with no other fluid source for animals in the DSS arm of the study. Filtered tap water was available ad libitum except for animals receiving 5% DSS as the sole source of fluid. After four days, signs of acute disease occured with the loss of weight, diarrhea and bloody stools. Histological changes included initial shortening of the crypts, then areas of separation of the crypts and the muscularis mucosae in the absence of destructive inflammatory filtrate. After five days, pathological changes became confluent with the appearance of erosions and early hyperplastic epithelium. Inflammation scores were high with neutrophils, lymphocytes, and plasma cells in the lamina propria but sparing the epithelium.
Test compounds were administered intraperitoneally (IP). Test compounds given during this period were evaluated for prophylactic activity and test compounds given after the disease state was established were evaluated for therapeutic activity.
Test animals were weighed daily from Day 0 to Day 8, or until completion of the study. The total duration of the study with DSS arm of the study was varied depending on the time progress of colitis. The condition of the test animals and consistency of stools was noted.
At the conclusion of the study, test animals were euthanized (CO2), a midline incision was made and a stool sample was obtained. The sample was placed on a slide and tested for occult blood (Quic-Cult™, Laboratory Diagnostics Co., Morganville, N.J.). Occult blood was determined by placing two drops of the reagent onto the sample and observing any color change. Occult blood presence was graded using a scoring protocol assigning a score of 0 for no color; 1 for a very light blue color (+/−) forming in >30 seconds; 2 for a blue color developing in 30 seconds or more (+); 3 for a change in color occurring in less than 30 seconds (++); and 4 for gross blood observable on the slide. The colon was gently stretched and the length from the colon-cecal junction to the end of the distal rectum was measured to the nearest 0.1 cm.
The scores for each test animal were added and then divided by three to give a DAI score for each animal.

[2] = injection site: LTB4 2000 ng, listed as (R,S)-tofisopam
[3] = injection site: LTB-ap 2000 ng, listed as (R,S)-tofisopam

CCC1C(C)=NN=C(c2ccc(OC)c(OC)c2)c2cc(OC)c(OC)cc21 (racemic) [Racemic tofisopam, Racemic-1-(3,4-dimethoxyphenyl)-4-methyl-5-ethyl-7,8-dimethoxy-5H-2,3-benzodiazepine]
Inflammation score ([1]; injection site: LTB4 500 ng): 2 | Edema score ([1]; injection site: LTB4 500 ng, listed as (R,S)-tofisopam): 2 and 3 | Edema score ([1]; injection site: LTB4 1000 ng): 3 | Inflammation score ([1]; injection site: LTB4 1000 ng, listed as (R,S)-tofisopam): 3 and 2 | Edema score [1, 2]: 2 and 1 and 3 | Inflammation score [1, 2]: 2 and 1 and 3 | Inflammation score ([1]; injection site: LTB-ap 500 ng): 2 | Edema score ([1]; injection site: LTB-ap 500 ng, listed as (R,S)-tofisopam): 2 and 3 | Edema score ([1]; injection site: LTB-ap 1000 ng): 3 | Inflammation score ([1]; injection site: LTB-ap 1000 ng): 3 | Edema score [1, 3]: 2 and 1 and 3 | Inflammation score [1, 3]: 2 and 1 | Inflammation score ([1]; injection site: Vehicle 0 ng): 1 | Edema score ([1]; injection site: Vehicle 0 ng, listed as (R,S)-tofisopam): 2 and 1 | Histopathology finding: reduction of inflammation and edema ([1]; summary in words): no meaningful reduction in the inflammation and edema | Mean colon length CM ± SEM (DSS-induced colitis; 16 mg/kg IP daily, DSS 5%): 8.2 ± 0.32 CM | Mean DAI ± SEM (DSS-induced colitis; 16 mg/kg IP daily): 2.59 ± 0.27 | Mean weight ± SEM, Day 0 (DSS-induced colitis; 16 mg/kg IP daily, DSS 5%): 25.9 ± 0.4 g | % weight change ± SEM, Day 8 (DSS-induced colitis; 16 mg/kg IP daily, DSS 5%): 3.1 ± 1.5% | Mean weight ± SEM, Day 8 (DSS-induced colitis; 16 mg/kg IP daily, DSS 5%): 25.1 ± 0.6 g | % weight change ± SEM, Day 9 (DSS-induced colitis; 16 mg/kg IP daily, DSS 5%): 7.4 ± 2.5% | Mean weight ± SEM, Day 9 (DSS-induced colitis; 16 mg/kg IP daily, DSS 5%): 24.0 ± 0.8 g | % weight change ± SEM, Day 10 (DSS-induced colitis; 16 mg/kg IP daily, DSS 5%): 13.3 ± 3.1% | Mean weight ± SEM, Day 10 (DSS-induced colitis; 16 mg/kg IP daily, DSS 5%): 22.5 ± 1.0 g | Mean colon length CM ± SEM (DSS-induced colitis; 32 mg/kg IP daily, DSS 5%): 8.3 ± 0.11 CM | Mean DAI ± SEM (DSS-induced colitis; 32 mg/kg IP daily): 2.37 ± 0.33 | Mean weight ± SEM, Day 0 (DSS-induced colitis; 32 mg/kg IP daily, DSS 5%): 26.1 ± 0.4 g | % weight change ± SEM, Day 8 (DSS-induced colitis; 32 mg/kg IP daily, DSS 5%): 1.8 ± 1.5% | Mean weight ± SEM, Day 8 (DSS-induced colitis; 32 mg/kg IP daily, DSS 5%): 25.6 ± 0.4 g | % weight change ± SEM, Day 9 (DSS-induced colitis; 32 mg/kg IP daily, DSS 5%): 5.3 ± 2.0% | Mean weight ± SEM, Day 9 (DSS-induced colitis; 32 mg/kg IP daily, DSS 5%): 24.7 ± 0.6 g | % weight change ± SEM, Day 10 (DSS-induced colitis; 32 mg/kg IP daily, DSS 5%): 8.0 ± 2.4% | Mean weight ± SEM, Day 10 (DSS-induced colitis; 32 mg/kg IP daily, DSS 5%): 24.0 ± 0.7 g | Mean colon length CM ± SEM (DSS-induced colitis; 64 mg/kg IP daily, DSS 5%): 8.2 ± 0.18 CM | Mean DAI ± SEM (DSS-induced colitis; 64 mg/kg IP daily): 2.87 ± 0.31 | Mean weight ± SEM, Day 0 (DSS-induced colitis; 64 mg/kg IP daily, DSS 5%): 25.8 ± 0.3 g | % weight change ± SEM, Day 8 (DSS-induced colitis; 64 mg/kg IP daily, DSS 5%): 1.2 ± 2.1% | Mean weight ± SEM, Day 8 (DSS-induced colitis; 64 mg/kg IP daily, DSS 5%): 25.5 ± 0.7 g | % weight change ± SEM, Day 9 (DSS-induced colitis; 64 mg/kg IP daily, DSS 5%): 5.1 ± 2.5% | Mean weight ± SEM, Day 9 (DSS-induced colitis; 64 mg/kg IP daily, DSS 5%): 24.5 ± 0.8 g | % weight change ± SEM, Day 10 (DSS-induced colitis; 64 mg/kg IP daily, DSS 5%): 8.9 ± 3.1% | Mean weight ± SEM, Day 10 (DSS-induced colitis; 64 mg/kg IP daily, DSS 5%): 23.5 ± 0.9 g | Mean DAI* ± SEM (DSS-induced colitis; 16 mg/kg IP daily, DSS 5%): 2.61 ± 0.30 | Mean DAI* ± SEM (DSS-induced colitis; 32 mg/kg IP daily, DSS 5%): 2.65 ± 0.28 | Mean DAI* ± SEM (DSS-induced colitis; 64 mg/kg IP daily, DSS 5%): 3.25 ± 0.26 | inhibition at 16 mg/kg (DSS-induced colitis; Mus musculus, 16 mg/kg IP daily, DSS 5%, read-out: Colon shortening inhib. %): 7% | inhibition at 32 mg/kg (DSS-induced colitis; Mus musculus, 32 mg/kg IP daily, DSS 5%, read-out: Colon shortening inhib. %): 9% | inhibition at 64 mg/kg (DSS-induced colitis; Mus musculus, 64 mg/kg IP daily, DSS 5%, read-out: Colon shortening inhib. %): 7% | % of normal length (DSS-induced colitis; 16 mg/kg IP daily, DSS 5%): 65.4% | % of normal length (DSS-induced colitis; 32 mg/kg IP daily, DSS 5%): 66.7% | % of normal length (DSS-induced colitis; 64 mg/kg IP daily, DSS 5%): 65.5%
